Among the data in the supplement of paper PMC10307832 are relative viability values, retold here.

Holding throughout (assay): relative viability (nuclei count vs DMSO), 5 days (fraction); higher = more cells survive
Compound in the assay “KIN001-266 + Foretinib”: CCN1CCC(CC1)N2C=C(N=N2)CNC3=CC4=C(C(=CN=C4C(=C3)Cl)C#N)NC5=CC(=C(C=C5)F)Cl [KIN001-266] + COc1cc2c(Oc3ccc(NC(=O)C4(C(=O)Nc5ccc(F)cc5)CC4)cc3F)ccnc2cc1OCCCN1CCOCC1 [Foretinib] (partner 0.25 µM)
In a few lines:
(§1)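 Cells from lung cancer lines were seeded into 1536-well plates and, one day later, dosed by pin tool. Treatments were either a single drug or a fixed dose of an anchor drug with five library-drug doses (not always all listed) in √10 steps. After 5 days, nuclei were stained in a one-step fixation (final 0.05% Triton X-100, 1% formaldehyde, 1 ug/ml Hoechst) and counted on 4× images, and relative viability is the treated-to-vehicle nuclei ratio, as the median of duplicate plates.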

Compound in the assay “KIN001-266 + Pictilisib”: CCN1CCC(CC1)N2C=C(N=N2)CNC3=CC4=C(C(=CN=C4C(=C3)Cl)C#N)NC5=CC(=C(C=C5)F)Cl [KIN001-266] + CS(=O)(=O)N1CCN(Cc2cc3nc(-c4cccc5[nH]ncc45)nc(N4CCOCC4)c3s2)CC1 [Pictilisib] (partner 1 µM)
In a few lines: as §1

Compound in the assay “KIN001-266 + AZD7762”: CCN1CCC(CC1)N2C=C(N=N2)CNC3=CC4=C(C(=CN=C4C(=C3)Cl)C#N)NC5=CC(=C(C=C5)F)Cl [KIN001-266] + NC(=O)Nc1cc(-c2cccc(F)c2)sc1C(=O)N[C@H]1CCCNC1 [AZD7762] (partner 0.2 µM)
In a few lines:
as §1

Compound in the assay “KIN001-266 + Vorinostat”: CCN1CCC(CC1)N2C=C(N=N2)CNC3=CC4=C(C(=CN=C4C(=C3)Cl)C#N)NC5=CC(=C(C=C5)F)Cl [KIN001-266] + O=C(CCCCCCC(=O)Nc1ccccc1)NO [Vorinostat] (partner 1 µM)
The procedure, abridged:
as §1

Regarding NCI-H2126, the relative viability in the assay with KIN001-266 + Foretinib (first compound 0.08 µM) was found to be 1.12; with KIN001-266 + Foretinib (first compound 0.253 µM), 1.18; with KIN001-266 + Foretinib (first compound 0.8 µM) it was 1.15; with KIN001-266 + Foretinib (first compound 2.53 µM), 1.26; in the assay with KIN001-266 + Foretinib (first compound 8 µM), 1.15; in the assay with KIN001-266 + Pictilisib (first compound 0.08 µM), 0.53. Further, the relative viability in the assay with KIN001-266 + Pictilisib (first compound 0.253 µM) is 0.538; in the assay with KIN001-266 + Pictilisib (first compound 0.8 µM), 0.449; with KIN001-266 + Pictilisib (first compound 2.53 µM), 0.434; with KIN001-266 + Pictilisib (first compound 8 µM) it was 0.5; in the assay with KIN001-266 + AZD7762 (first compound 0.08 µM), 1.03; in the assay with KIN001-266 + AZD7762 (first compound 0.253 µM) it was 1.02. Besides, the relative viability with KIN001-266 + AZD7762 (first compound 0.8 µM) was found to be 1; with KIN001-266 + AZD7762 (first compound 2.53 µM) it was 0.814; in the assay with KIN001-266 + AZD7762 (first compound 8 µM), 1.05; with KIN001-266 + Vorinostat (first compound 0.08 µM) it was 0.809; in the assay with KIN001-266 + Vorinostat (first compound 0.253 µM), 0.783; in the assay with KIN001-266 + Vorinostat (first compound 0.8 µM), 0.751. The results for the relative viability with KIN001-266 + Vorinostat (first compound 2.53 µM) and with KIN001-266 + Vorinostat (first compound 8 µM) were 0.732 and 0.694, respectively.
With HCC-827, the relative viability with KIN001-266 + Foretinib (first compound 0.08 µM) amounted to 1.04; with KIN001-266 + Foretinib (first compound 0.253 µM), 1.09; in the assay with KIN001-266 + Foretinib (first compound 0.8 µM) it was 0.944; with KIN001-266 + Foretinib (first compound 2.53 µM), 0.907; in the assay with KIN001-266 + Foretinib (first compound 8 µM), 0.809; with KIN001-266 + Pictilisib (first compound 0.08 µM), 0.855. For the same cell line, the relative viability with KIN001-266 + Pictilisib (first compound 0.253 µM) was found to be 1.09; with KIN001-266 + Pictilisib (first compound 2.53 µM), 0.785; with KIN001-266 + Pictilisib (first compound 8 µM), 0.837; with KIN001-266 + AZD7762 (first compound 0.08 µM), 0.28; in the assay with KIN001-266 + AZD7762 (first compound 0.253 µM), 0.224; with KIN001-266 + AZD7762 (first compound 0.8 µM) it was 0.131. In addition, the relative viability stood at 0.215 with KIN001-266 + AZD7762 (first compound 2.53 µM); 0.196 in the assay with KIN001-266 + AZD7762 (first compound 8 µM); 0.825 in the assay with KIN001-266 + Vorinostat (first compound 0.08 µM); 0.869 with KIN001-266 + Vorinostat (first compound 0.253 µM); 0.159 in the assay with KIN001-266 + Vorinostat (first compound 0.8 µM); 0.761 with KIN001-266 + Vorinostat (first compound 2.53 µM). In addition, the relative viability with KIN001-266 + Vorinostat (first compound 8 µM) was found to be 0.926.
For NCI-H3122, the relative viability with KIN001-266 + Foretinib (first compound 0.08 µM) amounted to 0.98; with KIN001-266 + Foretinib (first compound 0.253 µM), 0.961; in the assay with KIN001-266 + Foretinib (first compound 0.8 µM), 0.94; in the assay with KIN001-266 + Foretinib (first compound 2.53 µM), 0.918; in the assay with KIN001-266 + Foretinib (first compound 8 µM), 0.914; with KIN001-266 + Pictilisib (first compound 0.08 µM), 0.573. Further, the relative viability in the assay with KIN001-266 + Pictilisib (first compound 0.253 µM) turned out to be 0.615; with KIN001-266 + Pictilisib (first compound 0.8 µM), 0.494; in the assay with KIN001-266 + Pictilisib (first compound 2.53 µM), 0.559; with KIN001-266 + Pictilisib (first compound 8 µM), 0.544; with KIN001-266 + AZD7762 (first compound 0.08 µM), 0.937; with KIN001-266 + AZD7762 (first compound 0.253 µM), 1.15. Further, the relative viability in the assay with KIN001-266 + AZD7762 (first compound 0.8 µM) is 1.08; with KIN001-266 + AZD7762 (first compound 2.53 µM), 0.947; with KIN001-266 + AZD7762 (first compound 8 µM), 0.956; with KIN001-266 + Vorinostat (first compound 0.08 µM), 0.966; with KIN001-266 + Vorinostat (first compound 0.253 µM), 1.13; in the assay with KIN001-266 + Vorinostat (first compound 0.8 µM), 0.992. Moreover, the relative viability with KIN001-266 + Vorinostat (first compound 2.53 µM) turned out to be 1.06; in the assay with KIN001-266 + Vorinostat (first compound 8 µM), 1.02.
Regarding HOP-62, the relative viability was 0.96 with KIN001-266 + Foretinib (first compound 0.08 µM); 1.11 with KIN001-266 + Foretinib (first compound 0.253 µM); 1.15 with KIN001-266 + Foretinib (first compound 0.8 µM); 1.13 with KIN001-266 + Foretinib (first compound 2.53 µM); 1.13 with KIN001-266 + Foretinib (first compound 8 µM); 0.592 in the assay with KIN001-266 + Pictilisib (first compound 0.08 µM). Also, the relative viability with KIN001-266 + Pictilisib (first compound 0.253 µM) turned out to be 0.813; with KIN001-266 + Pictilisib (first compound 0.8 µM) it was 0.728; with KIN001-266 + Pictilisib (first compound 2.53 µM), 0.372; in the assay with KIN001-266 + Pictilisib (first compound 8 µM), 0.506; with KIN001-266 + AZD7762 (first compound 0.08 µM) it was 0.583; with KIN001-266 + AZD7762 (first compound 0.253 µM) it was 0.671. In addition, the relative viability with KIN001-266 + AZD7762 (first compound 0.8 µM) worked out at 1.03; with KIN001-266 + AZD7762 (first compound 2.53 µM), 0.729; with KIN001-266 + AZD7762 (first compound 8 µM), 0.447; with KIN001-266 + Vorinostat (first compound 0.08 µM), 0.812; with KIN001-266 + Vorinostat (first compound 0.253 µM), 0.661; with KIN001-266 + Vorinostat (first compound 0.8 µM), 0.786. Also, the relative viability in the assay with KIN001-266 + Vorinostat (first compound 2.53 µM) came to 0.685; with KIN001-266 + Vorinostat (first compound 8 µM), 0.527.
